Data published in patent US20140206633A1, “PROCESS FOR THE PREPARATION OF ISOXAZOLINE DERIVATIVES” (SYNGENTA CROP PROTECTION LLC, priority 2010, published 2014).

| SMILES | melting point |
| --- | --- |
| C=CC1C[N+]2(Cc3c4ccccc4cc4ccccc34)CCC1C[C@H]2[C@H](O)c1ccnc2ccc(OC)cc12.[Cl-] (some centres unmarked) | 150 to 152 °C (dec.) |
| C=CC1C[N+]2(Cc3c(F)c(F)c(F)c(F)c3F)CCC1C[C@H]2[C@H](O)c1ccnc2ccc(OC)cc12.[Br-] (some centres unmarked) | 162 to 165 °C (dec.) |
